Experimental data reported in patent publication US5424293A (Cassella AG, priority 1992, dated 1995).
Read-outs that look alike come from different tables or passages of the source.

What was measured:
[1] = target: T1, fibrinogen receptor (glycoprotein IIb/IIIa) (Homo sapiens, UniProt P05106+P08514); test: Inhibition of binding of 125I-fibrinogen to its receptor on intact, gel-filtered human platelets; conditions: inhibition of 125I-fibrinogen binding, stimulation with ADP (10 μM), read-out: Ki (μM), ADP-stimulated
T1 construct: endogenous in cells
Experimental: (§1) The compounds are tested in particular for their inhibitory action in blood platelet aggregation and the adhesion of fibrinogen to blood platelets. Gel-filtered blood platelets from human donor blood are used, which are activated with ADP or thrombin.
The inhibition of the binding of fibrinogen to its receptor (glycoprotein IIb/IIIa) by the compounds according to the invention is tested on intact, gel-filtered human platelets. The Ki value of the inhibition of binding of ^125 I-fibrinogen after stimulation with ADP (10 μM) is given. (References: J. S. Bennett and G. Vilaire, J. Clin. Invest. 64 (1979), 1393-1401; E. Kornecki et al., J. Biol. Chem. 256 (1981), 5695-5701; G. A. Marguerie et al., J. Biol. Chem. 254 (1979), 5357-5363; G. A. Marguerie et al., J. Biol. Chem. 255 (1980), 154-161).

[2] = system: gel-filtered human platelets; test: Inhibition of aggregation of gel-filtered human platelets after ADP or thrombin stimulation; assay type: cell-based
Experimental: as §1
As a functional test, the inhibition of aggregation of gel-filtered human platelets by the compounds according to the invention is measured after ADP or thrombin stimulation. The IC50 value of the inhibition is given.

T1 sequence (P08514 32-887 limits assumed): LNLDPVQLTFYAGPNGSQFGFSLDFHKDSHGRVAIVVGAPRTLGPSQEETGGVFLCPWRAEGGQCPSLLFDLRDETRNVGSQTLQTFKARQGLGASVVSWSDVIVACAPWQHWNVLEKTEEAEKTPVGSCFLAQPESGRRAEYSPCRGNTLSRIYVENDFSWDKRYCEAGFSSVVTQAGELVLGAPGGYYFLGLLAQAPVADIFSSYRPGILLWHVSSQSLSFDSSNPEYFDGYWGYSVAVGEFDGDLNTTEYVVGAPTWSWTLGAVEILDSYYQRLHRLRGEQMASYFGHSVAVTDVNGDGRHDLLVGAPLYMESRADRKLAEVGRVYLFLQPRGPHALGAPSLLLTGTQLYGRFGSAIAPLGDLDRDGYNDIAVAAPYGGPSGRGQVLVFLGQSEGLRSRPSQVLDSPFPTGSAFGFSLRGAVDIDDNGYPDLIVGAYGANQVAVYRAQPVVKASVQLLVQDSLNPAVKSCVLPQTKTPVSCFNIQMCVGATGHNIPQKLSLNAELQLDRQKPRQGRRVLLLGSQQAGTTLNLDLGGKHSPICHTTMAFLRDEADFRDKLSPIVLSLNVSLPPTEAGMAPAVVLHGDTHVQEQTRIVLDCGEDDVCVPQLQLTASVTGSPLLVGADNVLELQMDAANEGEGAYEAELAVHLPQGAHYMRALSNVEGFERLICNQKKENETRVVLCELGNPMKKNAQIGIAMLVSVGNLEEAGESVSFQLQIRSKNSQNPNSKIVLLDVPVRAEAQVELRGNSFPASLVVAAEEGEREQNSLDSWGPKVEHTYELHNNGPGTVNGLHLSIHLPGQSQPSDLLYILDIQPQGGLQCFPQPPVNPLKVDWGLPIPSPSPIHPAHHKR
T1 sequence (P08514 891-1039 partner limits assumed): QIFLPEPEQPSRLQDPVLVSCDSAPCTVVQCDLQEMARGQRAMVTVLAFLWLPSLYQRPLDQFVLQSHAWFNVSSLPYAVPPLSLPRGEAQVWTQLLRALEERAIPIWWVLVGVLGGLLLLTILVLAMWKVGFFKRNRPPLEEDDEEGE
T1 sequence (P05106 27-788): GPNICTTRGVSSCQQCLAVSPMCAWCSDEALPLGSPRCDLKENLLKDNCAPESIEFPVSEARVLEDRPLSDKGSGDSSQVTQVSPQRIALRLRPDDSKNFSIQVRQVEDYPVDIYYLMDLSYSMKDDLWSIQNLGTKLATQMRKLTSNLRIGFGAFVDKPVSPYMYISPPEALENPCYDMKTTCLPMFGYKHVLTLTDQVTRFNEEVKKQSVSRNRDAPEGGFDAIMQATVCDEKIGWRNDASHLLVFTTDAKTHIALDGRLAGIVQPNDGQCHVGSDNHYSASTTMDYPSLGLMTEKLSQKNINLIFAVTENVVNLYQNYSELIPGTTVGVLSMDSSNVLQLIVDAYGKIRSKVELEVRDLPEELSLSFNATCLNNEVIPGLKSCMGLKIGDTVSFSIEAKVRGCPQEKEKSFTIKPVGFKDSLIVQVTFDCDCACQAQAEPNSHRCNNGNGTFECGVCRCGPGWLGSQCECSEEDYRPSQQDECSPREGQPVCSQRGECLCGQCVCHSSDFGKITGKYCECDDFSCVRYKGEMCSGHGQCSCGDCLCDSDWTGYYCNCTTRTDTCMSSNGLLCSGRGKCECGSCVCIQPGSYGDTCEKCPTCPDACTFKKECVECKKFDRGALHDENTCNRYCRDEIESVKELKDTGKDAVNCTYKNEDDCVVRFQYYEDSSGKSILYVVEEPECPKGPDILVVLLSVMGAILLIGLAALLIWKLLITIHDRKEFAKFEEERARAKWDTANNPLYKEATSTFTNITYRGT

Row | Compound | Ki [1] [µM] | IC50 ([2]; inhibition of aggregation of gel-filtered human platelets, ADP stimulation, read-out: ADP-stimulated IC50) [nM] | IC50 ([2]; inhibition of aggregation of gel-filtered human platelets, thrombin stimulation; read-out: Thrombin-stimulated IC50 9 μM)) [nM] | IC50 ([2]; Platelet, inhibition of aggregation of gel-filtered human platelets, ADP stimulation, read-out: ADP-stimulated IC50) [nM] | IC50 ([2]; Platelet; inhibition of aggregation of gel-filtered human platelets, thrombin stimulation; read-out: Thrombin-stimulated IC50 9 μM)) [nM]
1 | N=C(N)Nc1ccc(C2NC(=O)N(CC(=O)N[C@@H](CC(=O)O)C(=O)N[C@H](C(=O)O)c3ccccc3)C2=O)cc1 (stereo partly drawn) [Example 1, (5-(4-Guanidinophenyl)-2,4-dioxoimidazolin-3-yl)acetyl-L-aspartyl-L-phenylglycine] | 0.03 | 200 | 70 | – | –
2 | N=C(N)Nc1cccc(C2NC(=O)N(CC(=O)N[C@@H](CC(=O)O)C(=O)N[C@H](C(=O)O)c3ccccc3)C2=O)c1 (stereo partly drawn) [Example 2] | 2 | – | – | 6000 | 3000
